Key:
Assay in all cases: KINOMEscan competition binding
Settings in all cases: compound 10.0 µM
CHUK (human) = CHUK (human) (UniProt O15111)
PI4KB (human) = PI4KB (human) (UniProt Q9UBF8)
ANKK1 (human) = ANKK1 (human) (UniProt Q8NFD2)
MAP2K3 (human) = MAP2K3 (human) (UniProt P46734)
PRKX (human) = PRKX (human) (UniProt P51817)
TRPM6 (human) = TRPM6 (human) (UniProt Q9BX84)
PRKCI (human) = PRKCI (human) (UniProt P41743)
CDK2 (human) = CDK2 (human) (UniProt P24941)
MERTK (human) = MERTK (human) (UniProt Q12866)
CAMK2B (human) = CAMK2B (human) (UniProt Q13554)
Chain of CAMK2B (human) (Q13554 whole entry, looked up): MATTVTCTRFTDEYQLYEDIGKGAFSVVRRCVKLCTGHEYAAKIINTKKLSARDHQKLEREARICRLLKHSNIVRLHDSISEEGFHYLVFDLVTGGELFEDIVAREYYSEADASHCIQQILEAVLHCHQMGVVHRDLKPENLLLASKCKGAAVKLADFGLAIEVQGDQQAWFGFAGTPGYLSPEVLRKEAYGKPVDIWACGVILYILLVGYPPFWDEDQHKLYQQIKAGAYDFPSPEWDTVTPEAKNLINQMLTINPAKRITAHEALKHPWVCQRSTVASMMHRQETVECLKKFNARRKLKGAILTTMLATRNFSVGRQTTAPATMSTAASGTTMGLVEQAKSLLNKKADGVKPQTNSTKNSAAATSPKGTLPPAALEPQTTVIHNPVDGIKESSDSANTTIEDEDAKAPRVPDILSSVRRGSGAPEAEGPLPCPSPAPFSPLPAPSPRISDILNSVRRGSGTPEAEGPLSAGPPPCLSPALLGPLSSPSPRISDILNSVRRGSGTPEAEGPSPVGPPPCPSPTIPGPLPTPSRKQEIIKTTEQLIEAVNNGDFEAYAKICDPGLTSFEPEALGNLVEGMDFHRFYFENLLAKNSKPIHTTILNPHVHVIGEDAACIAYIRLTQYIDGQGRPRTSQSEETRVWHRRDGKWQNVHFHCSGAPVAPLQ

MYO3B (human) = MYO3B (human) (UniProt Q8WXR4)
TNK2 (human) = TNK2 (human) (UniProt Q07912)
MYO3A (human) = MYO3A (human) (UniProt Q8NEV4)
[1] = tested on: FLT3 (human), P36888 [D835H]
NEK1 (human) = NEK1 (human) (UniProt Q96PY6)
CLK4 (human) = CLK4 (human) (UniProt Q9HAZ1)
CDK3 (human) = CDK3 (human) (UniProt Q00526)
MAP4K1 (human) = MAP4K1 (human) (UniProt Q92918)
EPHA8 (human) = EPHA8 (human) (UniProt P29322)
Chain of EPHA8 (human) (P29322 whole entry, looked up): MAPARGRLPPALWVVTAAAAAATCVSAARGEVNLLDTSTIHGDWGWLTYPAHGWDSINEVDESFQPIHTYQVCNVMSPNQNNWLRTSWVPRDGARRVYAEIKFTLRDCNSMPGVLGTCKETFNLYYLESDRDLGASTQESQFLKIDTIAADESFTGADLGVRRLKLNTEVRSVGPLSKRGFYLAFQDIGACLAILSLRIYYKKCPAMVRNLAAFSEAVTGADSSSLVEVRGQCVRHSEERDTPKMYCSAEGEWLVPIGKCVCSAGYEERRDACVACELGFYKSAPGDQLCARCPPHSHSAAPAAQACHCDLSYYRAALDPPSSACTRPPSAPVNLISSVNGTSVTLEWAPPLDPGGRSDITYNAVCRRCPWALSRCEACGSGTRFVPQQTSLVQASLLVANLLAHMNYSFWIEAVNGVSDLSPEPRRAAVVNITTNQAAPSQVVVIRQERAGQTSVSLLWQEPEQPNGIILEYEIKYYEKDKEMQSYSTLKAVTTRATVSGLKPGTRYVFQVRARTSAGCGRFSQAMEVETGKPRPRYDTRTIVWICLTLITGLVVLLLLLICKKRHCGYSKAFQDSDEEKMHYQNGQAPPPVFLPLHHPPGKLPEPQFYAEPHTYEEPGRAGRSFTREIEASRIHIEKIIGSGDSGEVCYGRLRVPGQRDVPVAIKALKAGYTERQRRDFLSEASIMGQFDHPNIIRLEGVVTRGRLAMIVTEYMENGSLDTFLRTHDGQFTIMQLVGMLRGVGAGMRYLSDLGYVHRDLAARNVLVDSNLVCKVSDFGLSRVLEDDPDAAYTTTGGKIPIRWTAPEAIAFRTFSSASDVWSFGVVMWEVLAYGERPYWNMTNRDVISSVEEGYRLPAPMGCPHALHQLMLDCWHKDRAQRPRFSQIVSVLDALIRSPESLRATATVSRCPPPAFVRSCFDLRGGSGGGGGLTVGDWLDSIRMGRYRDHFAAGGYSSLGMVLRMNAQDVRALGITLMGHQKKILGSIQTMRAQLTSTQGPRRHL

MAP3K2 (human) = MAP3K2 (human) (UniProt Q9Y2U5)
TTK (human) = TTK (human) (UniProt P33981)
RPS6KA6 KD1 (human) = RPS6KA6 KD1 (human) (UniProt Q9UK32)
MAP4K4 (human) = MAP4K4 (human) (UniProt O95819)
[2] = target: TYK2 JH1 catalytic (human) (UniProt P29597)
LATS1 (human) = LATS1 (human) (UniProt O95835)
INSR (human) = INSR (human) (UniProt P06213)
TXK (human) = TXK (human) (UniProt P42681)
CSNK1G1 (human) = CSNK1G1 (human) (UniProt Q9HCP0)
PHKG2 (human) = PHKG2 (human) (UniProt P15735)
WEE1 (human) = WEE1 (human) (UniProt P30291)
PIK3C2B (human) = PIK3C2B (human) (UniProt O00750)
PRKACA (human) = PRKACA (human) (UniProt P17612)
STK25 (human) = STK25 (human) (UniProt O00506)
Chain of STK25 (human) (O00506 whole entry, looked up): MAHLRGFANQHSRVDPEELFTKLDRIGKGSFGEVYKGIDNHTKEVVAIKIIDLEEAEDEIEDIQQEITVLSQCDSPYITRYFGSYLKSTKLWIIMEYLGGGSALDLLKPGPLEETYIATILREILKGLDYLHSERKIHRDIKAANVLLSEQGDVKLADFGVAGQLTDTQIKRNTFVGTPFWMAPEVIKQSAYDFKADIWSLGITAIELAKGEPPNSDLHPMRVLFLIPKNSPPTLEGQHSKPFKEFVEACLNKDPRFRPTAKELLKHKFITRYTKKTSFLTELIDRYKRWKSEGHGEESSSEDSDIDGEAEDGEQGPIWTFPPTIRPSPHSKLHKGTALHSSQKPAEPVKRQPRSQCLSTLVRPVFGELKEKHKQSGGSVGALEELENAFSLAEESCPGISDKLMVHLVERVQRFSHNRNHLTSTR

[3] = tested on: RET (human), P07949 [M918T]
MYLK3 (human) = MYLK3 (human) (UniProt Q32MK0)
Chain of MYLK3 (human) (Q32MK0 whole entry, looked up): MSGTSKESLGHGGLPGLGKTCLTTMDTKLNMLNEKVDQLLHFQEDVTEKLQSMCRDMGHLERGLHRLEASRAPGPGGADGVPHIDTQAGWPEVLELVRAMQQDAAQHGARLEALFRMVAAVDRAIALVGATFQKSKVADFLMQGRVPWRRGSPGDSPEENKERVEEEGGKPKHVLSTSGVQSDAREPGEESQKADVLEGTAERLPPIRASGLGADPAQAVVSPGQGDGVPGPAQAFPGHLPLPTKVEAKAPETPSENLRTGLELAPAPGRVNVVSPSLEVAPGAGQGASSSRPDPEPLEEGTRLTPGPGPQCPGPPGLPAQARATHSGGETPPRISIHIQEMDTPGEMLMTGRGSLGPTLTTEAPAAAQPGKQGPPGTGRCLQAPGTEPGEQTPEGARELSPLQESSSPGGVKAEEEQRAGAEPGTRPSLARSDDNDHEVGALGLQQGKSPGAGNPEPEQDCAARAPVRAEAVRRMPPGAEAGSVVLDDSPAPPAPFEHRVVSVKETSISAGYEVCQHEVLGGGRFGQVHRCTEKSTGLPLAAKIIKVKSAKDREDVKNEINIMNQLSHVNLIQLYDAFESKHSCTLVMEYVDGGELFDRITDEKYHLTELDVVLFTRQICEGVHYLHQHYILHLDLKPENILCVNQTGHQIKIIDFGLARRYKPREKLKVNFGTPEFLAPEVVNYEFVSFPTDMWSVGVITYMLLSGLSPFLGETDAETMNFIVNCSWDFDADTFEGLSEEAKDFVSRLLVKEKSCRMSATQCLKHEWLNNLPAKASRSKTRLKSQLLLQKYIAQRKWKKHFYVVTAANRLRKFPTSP

SLK (human) = SLK (human) (UniProt Q9H2G2)
Chain of SLK (human) (Q9H2G2 whole entry, looked up): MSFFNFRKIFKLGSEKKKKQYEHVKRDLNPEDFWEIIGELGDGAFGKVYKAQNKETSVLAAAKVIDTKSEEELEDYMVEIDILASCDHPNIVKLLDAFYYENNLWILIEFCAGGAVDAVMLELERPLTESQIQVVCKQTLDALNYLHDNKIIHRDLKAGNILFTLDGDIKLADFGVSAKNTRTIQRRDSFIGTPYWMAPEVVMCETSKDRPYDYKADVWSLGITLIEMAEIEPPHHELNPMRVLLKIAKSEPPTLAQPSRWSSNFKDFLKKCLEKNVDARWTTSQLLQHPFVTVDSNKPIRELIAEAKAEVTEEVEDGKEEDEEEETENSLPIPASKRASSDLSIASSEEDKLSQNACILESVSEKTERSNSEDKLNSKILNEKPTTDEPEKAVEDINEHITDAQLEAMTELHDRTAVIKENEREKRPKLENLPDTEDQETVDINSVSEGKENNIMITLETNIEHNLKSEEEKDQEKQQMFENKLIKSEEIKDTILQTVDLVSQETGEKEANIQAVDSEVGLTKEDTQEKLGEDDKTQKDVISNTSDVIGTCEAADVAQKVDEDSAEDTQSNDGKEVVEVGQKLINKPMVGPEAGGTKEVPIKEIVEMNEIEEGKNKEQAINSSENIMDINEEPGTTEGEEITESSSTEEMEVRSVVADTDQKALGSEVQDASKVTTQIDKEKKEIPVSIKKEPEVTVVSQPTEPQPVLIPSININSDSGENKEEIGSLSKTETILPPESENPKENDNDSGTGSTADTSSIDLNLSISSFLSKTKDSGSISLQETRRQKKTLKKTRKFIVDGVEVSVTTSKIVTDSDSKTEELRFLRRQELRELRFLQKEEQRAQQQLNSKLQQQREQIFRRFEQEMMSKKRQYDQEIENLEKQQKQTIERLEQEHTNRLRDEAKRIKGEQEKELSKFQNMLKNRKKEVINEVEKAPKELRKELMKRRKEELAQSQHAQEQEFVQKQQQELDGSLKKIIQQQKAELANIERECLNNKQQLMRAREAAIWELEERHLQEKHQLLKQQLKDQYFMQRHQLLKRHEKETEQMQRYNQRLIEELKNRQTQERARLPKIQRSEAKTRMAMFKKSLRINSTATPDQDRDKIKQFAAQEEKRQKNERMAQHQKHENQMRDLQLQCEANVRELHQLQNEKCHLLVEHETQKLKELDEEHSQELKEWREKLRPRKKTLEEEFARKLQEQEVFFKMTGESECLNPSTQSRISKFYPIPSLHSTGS

PAK3 (human) = PAK3 (human) (UniProt O75914)
DAPK1 (human) = DAPK1 (human) (UniProt P53355)
PTK6 (human) = PTK6 (human) (UniProt Q13882)
CSNK1A1 (human) = CSNK1A1 (human) (UniProt P48729)
Chain of CSNK1A1 (human) (P48729 whole entry, looked up): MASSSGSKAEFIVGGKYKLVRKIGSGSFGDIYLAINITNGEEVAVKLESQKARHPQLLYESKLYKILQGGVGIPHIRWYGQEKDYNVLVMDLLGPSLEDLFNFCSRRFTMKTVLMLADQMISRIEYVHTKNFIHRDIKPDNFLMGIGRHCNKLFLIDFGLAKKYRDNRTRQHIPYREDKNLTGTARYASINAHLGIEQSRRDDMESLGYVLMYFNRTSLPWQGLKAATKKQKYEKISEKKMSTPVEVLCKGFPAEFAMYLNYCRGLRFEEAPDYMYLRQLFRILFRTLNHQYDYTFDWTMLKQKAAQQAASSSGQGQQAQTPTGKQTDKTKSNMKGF

Chain of MAP2K3 (human) (P46734 whole entry, looked up): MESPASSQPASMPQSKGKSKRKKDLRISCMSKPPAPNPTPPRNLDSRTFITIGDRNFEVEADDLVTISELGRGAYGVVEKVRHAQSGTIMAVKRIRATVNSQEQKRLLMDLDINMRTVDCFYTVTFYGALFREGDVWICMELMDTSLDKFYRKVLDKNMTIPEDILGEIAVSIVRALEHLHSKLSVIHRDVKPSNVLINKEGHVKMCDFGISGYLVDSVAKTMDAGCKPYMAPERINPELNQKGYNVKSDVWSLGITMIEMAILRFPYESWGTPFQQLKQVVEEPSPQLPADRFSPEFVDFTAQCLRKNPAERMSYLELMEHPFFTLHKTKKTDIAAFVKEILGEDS

SMILES: COc1cc2ncnc(-n3nc(-c4ccccn4)nc3N)c2cc1OC
- kinase still bound, per cent of control (CHUK (human)): 44%
- kinase still bound, per cent of control (PI4KB (human)): 9.8%
- kinase still bound, per cent of control (ANKK1 (human)): 12%
- kinase still bound, per cent of control (MAP2K3 (human)): 27%
- kinase still bound, per cent of control (PRKX (human)): 79%
- kinase still bound, per cent of control (TRPM6 (human)): 61%
- kinase still bound, per cent of control (PRKCI (human)): 55%
- kinase still bound, per cent of control (CDK2 (human)): 50%
- kinase still bound, per cent of control (MERTK (human)): 29%
- kinase still bound, per cent of control (CAMK2B (human)): 37%
- kinase still bound, per cent of control (MYO3B (human)): 100%
- kinase still bound, per cent of control (TNK2 (human)): 54%
- kinase still bound, per cent of control (MYO3A (human)): 72%
- kinase still bound, per cent of control [1]: 3.2%
- kinase still bound, per cent of control (NEK1 (human)): 36%
- kinase still bound, per cent of control (CLK4 (human)): 2.2%
- kinase still bound, per cent of control (CDK3 (human)): 82%
- kinase still bound, per cent of control (MAP4K1 (human)): 56%
- kinase still bound, per cent of control (EPHA8 (human)): 59%
- kinase still bound, per cent of control (MAP3K2 (human)): 33%
- kinase still bound, per cent of control (TTK (human)): 20%
- kinase still bound, per cent of control (RPS6KA6 KD1 (human)): 20%
- kinase still bound, per cent of control (MAP4K4 (human)): 69%
- kinase still bound, per cent of control [2]: 22%
- kinase still bound, per cent of control (LATS1 (human)): 100%
- kinase still bound, per cent of control (INSR (human)): 91%
- kinase still bound, per cent of control (TXK (human)): 43%
- kinase still bound, per cent of control (CSNK1G1 (human)): 33%
- kinase still bound, per cent of control (PHKG2 (human)): 36%
- kinase still bound, per cent of control (WEE1 (human)): 80%
- kinase still bound, per cent of control (PIK3C2B (human)): 0.35%
- kinase still bound, per cent of control (PRKACA (human)): 100%
- kinase still bound, per cent of control (STK25 (human)): 33%
- kinase still bound, per cent of control [3]: 14%
- kinase still bound, per cent of control (MYLK3 (human)): 100%
- kinase still bound, per cent of control (SLK (human)): 28%
- kinase still bound, per cent of control (PAK3 (human)): 12%
- kinase still bound, per cent of control (DAPK1 (human)): 3.6%
- kinase still bound, per cent of control (PTK6 (human)): 51%
- kinase still bound, per cent of control (CSNK1A1 (human)): 1.4%

Source: the kinase profiling compilation of Christmann-Franck et al. (2016)
